US20260256792A1, “TREATMENT OF CHRONIC SPONTANEOUS URTICARIA BY ADMINISTERING (R)-2-[3-[4-AMINO-3-(2-FLUORO-4-PHENOXY-PHENYL)PYRAZOLO[3,4-D]PYRIMIDIN-1-YL]PIPERIDINE-1-CARBONYL]-4-METHYL-4-[4-(OXETAN-3-YL)PIPERAZIN-1-YL]PENT-2-ENENITRILE” (priority 2023, published 2026)

Tested on: moderate-to-severe chronic spontaneous urticaria (CSU)
Assay: Phase 2 CSU study: hives severity score over 7 days (HSS7)
Format: in vivo, human
Design: key to HSS7 Change from baseline, Median / HSS7, Median / HSS7, Max / HSS7 Change from baseline, Q1 / HSS7 Change from baseline, Q3 / HSS7 Change from baseline, Max: 7-day sum of daily hive scores, each 0 = none to 3 = >50 hives
Description: The study comprises a 12 week, randomized, double-blind, placebo-controlled, multi-center, dose-ranging efficacy and safety phase, followed by a 40 week open label extension (OLE) phase (see FIG. 1).
The study consists of three phases and an optional OLE phase.
The UAS is a validated PRO measure. The daily UAS is the sum of the daily Hive Severity Score (HSS, ranging from 0=None to 3=more than 50 hives) and the daily Itch Severity Score (ISS, ranging from 0=None to 3=intense), the 2 key urticaria signs and symptoms which are wheals and itch. The daily UAS scores range from 0 to 6 point/day. Daily UAS scores are summed over 7-day period to create the UAS7, ranging from 0 to 42, and are composed of the HSS7 and ISS7 components. […] Patients were to complete the UAS using the e-diary. The e-diary was to be used once daily on the same time of each day recording of participant's answers to the urticaria activity score over 7 days (UAS7) questionnaire. For participants who entered the OLE phase, their answers to the UAS7 questionnaire were also to be collected from Week 20 to Week24 and from Week 48 to Week 52.
The following secondary endpoints were to be analyzed using the same approach as for the primary endpoint: • Change from baseline in UAS7 at Week 4 • Change from baseline in UAS7 at Week 12 (for US and US reference countries) • Change from baseline in ISS7 at Week 12 (except US and US reference countries) • Change from baseline in HSS7 at Week 12

[1] = Week 10, 400 mg BID, Omalizumab-Naïve Population
[2] = Week 10, 400 mg BID, Patients with Prior Omalizumab Use
[3] = Week 10, 400 mg QPM, Omalizumab-Naïve Population
[4] = Week 10, 400 mg QPM, Patients with Prior Omalizumab Use
[5] = Week 10, 400 mg TID, Omalizumab-Naïve Population
[6] = Week 10, 400 mg TID, Patients with Prior Omalizumab Use
[7] = Week 11, 400 mg BID, Omalizumab-Naïve Population
[8] = Week 11, 400 mg BID, Patients with Prior Omalizumab Use
[9] = Week 11, 400 mg QPM, Omalizumab-Naïve Population
[10] = Week 11, 400 mg QPM, Patients with Prior Omalizumab Use
[11] = Week 11, 400 mg TID, Omalizumab-Naïve Population
[12] = Week 11, 400 mg TID, Patients with Prior Omalizumab Use
[13] = Week 12, 400 mg BID, Omalizumab-Naïve Population
[14] = Week 12, 400 mg BID, Patients with Prior Omalizumab Use
[15] = Week 12, 400 mg QPM, Omalizumab-Naïve Population
[16] = Week 12, 400 mg QPM, Patients with Prior Omalizumab Use
[17] = Week 12, 400 mg TID, Omalizumab-Naïve Population
[18] = Week 12, 400 mg TID, Patients with Prior Omalizumab Use

In the case of `CC(C)(C=C(C#N)C(=O)N1CCC[C@@H](n2nc(-c3ccc(Oc4ccccc4)cc3F)c3c(N)ncnc32)C1)N1CCN(C2COC2)CC1` [rilzabrutinib, (R)-2-[3-[4-amino-3-(2-fluoro-4-phenoxy-phenyl)pyrazolo[3,4-d]pyrimidin-1-yl]piperidine-1-carbonyl]-4-methyl-4-[4-(oxetan-3-yl)piperazin-1-yl]pent-2-enenitrile], the “HSS7, Median” value [1] was 6.50, the “HSS7 Change from baseline, Mean (SD)” value [1] was −6.95 (5.65) and the “HSS7 Change from baseline, Median” value [1] was −6.50. The “HSS7 Percent change from baseline, Mean (SD)” value (“HSS7 Percent change … (SD)” below) [1] was −53.45 (42.56) %, the “HSS7 Percent change from baseline, Median” value (“HSS7 Percent change … Median” below) [1] was −47.73% and the “HSS7, Mean (SD)” value [2] was 5.20 (7.19). The “HSS7, Median” value [2] was 2.00, the “HSS7 Change from baseline, Mean (SD)” value [2] was −9.60 (9.13) and the “HSS7 Change from baseline, Median” value [2] was −12.00. For the same compound, the “HSS7 Percent change … (SD)” value [2] was −58.10 (53.18) %, the “HSS7 Percent change … Median” value [2] was −90.48% and the “HSS7, Mean (SD)” value [3] was 9.88 (5.93). For the same compound, the “HSS7, Median” value [3] was 8.00, the “HSS7 Change from baseline, Mean (SD)” value [3] was −5.27 (5.66) and the “HSS7 Change from baseline, Median” value [3] was −4.00. The “HSS7 Percent change … (SD)” value [3] was −33.86 (34.68) %, the “HSS7 Percent change … Median” value [3] was −28.64% and the “HSS7, Mean (SD)” value [4] was 8.00 (NC). For the same compound, the “HSS7, Median” value [4] was 8.00, the “HSS7 Change from baseline, Mean (SD)” value [4] was −12.00 (NC) and the “HSS7 Change from baseline, Median” value [4] was −12.00. For the same compound, the “HSS7 Percent change … (SD)” value [4] was −60.00 (NC) %, the “HSS7 Percent change … Median” value [4] was −60.00% and the “HSS7, Mean (SD)” value [5] was 5.87 (5.06). The “HSS7, Median” value [5] was 4.50, the “HSS7 Change from baseline, Mean (SD)” value [5] was −8.20 (5.62) and the “HSS7 Change from baseline, Median” value [5] was −9.00. For the same compound, the “HSS7 Percent change … (SD)” value [5] was −57.32 (34.80) %, the “HSS7 Percent change … Median” value [5] was −63.10% and the “HSS7, Mean (SD)” value [6] was 3.00 (4.65). For the same compound, the “HSS7, Median” value [6] was 1.00, the “HSS7 Change from baseline, Mean (SD)” value [6] was −13.03 (7.21) and the “HSS7 Change from baseline, Median” value [6] was −13.00. The “HSS7 Percent change … (SD)” value [6] was −79.31 (25.96) %, the “HSS7 Percent change … Median” value [6] was −91.50% and the “HSS7, Mean (SD)” value [7] was 7.13 (7.07). For the same compound, the “HSS7, Median” value [7] was 5.83, the “HSS7 Change from baseline, Mean (SD)” value [7] was −7.34 (6.14) and the “HSS7 Change from baseline, Median” value [7] was −7.00. The “HSS7 Percent change … (SD)” value [7] was −52.82 (41.27) %, the “HSS7 Percent change … Median” value [7] was −54.55% and the “HSS7, Mean (SD)” value [8] was 4.80 (7.46). The “HSS7, Median” value [8] was 0.00, the “HSS7 Change from baseline, Mean (SD)” value [8] was −10.00 (9.67) and the “HSS7 Change from baseline, Median” value [8] was −12.00. The “HSS7 Percent change … Median” value [8] was −100.00%, the “HSS7, Mean (SD)” value [9] was 10.18 (6.18) and the “HSS7, Median” value [9] was 9.33. The “HSS7 Change from baseline, Mean (SD)” value [9] was −5.18 (5.64), the “HSS7 Change from baseline, Median” value [9] was 3.00 and the “HSS7 Percent change … (SD)” value [9] was −33.21 (36.21) %. The “HSS7 Percent change … Median” value [9] was −30.00%, the “HSS7, Mean (SD)” value [10] was 9.00 (NC) and the “HSS7, Median” value [10] was 9.00. For the same compound, the “HSS7 Change from baseline, Mean (SD)” value [10] was −11.00 (NC), the “HSS7 Change from baseline, Median” value [10] was −11.00 and the “HSS7 Percent change … (SD)” value [10] was −55.00 (NC) %. For the same compound, the “HSS7 Percent change … Median” value [10] was −55.00%, the “HSS7, Mean (SD)” value [11] was 6.17 (5.40) and the “HSS7, Median” value [11] was 5.83. The “HSS7 Change from baseline, Mean (SD)” value [11] was −7.90 (6.07), the “HSS7 Change from baseline, Median” value [11] was −8.00 and the “HSS7 Percent change … (SD)” value [11] was −55.30 (37.59) %. For the same compound, the “HSS7 Percent change … Median” value [11] was −61.11%, the “HSS7, Mean (SD)” value [12] was 2.67 (4.84) and the “HSS7, Median” value [12] was 0.00. The “HSS7 Change from baseline, Mean (SD)” value [12] was −13.36 (7.26), the “HSS7 Change from baseline, Median” value [12] was −13.00 and the “HSS7 Percent change … (SD)” value [12] was −82.14 (27.76) %. For the same compound, the “HSS7 Percent change … Median” value [12] was −100.00%, the “HSS7, Mean (SD)” value [13] was 7.52 (7.21) and the “HSS7, Median” value [13] was 7.00. For the same compound, the “HSS7 Change from baseline, Mean (SD)” value [13] was −7.09 (6.54), the “HSS7 Change from baseline, Median” value [13] was −4.50 and the “HSS7 Percent change … (SD)” value [13] was −49.56 (40.81) %. The “HSS7 Percent change … Median” value [13] was −37.50%, the “HSS7, Mean (SD)” value [14] was 4.25 (8.50) and the “HSS7, Median” value [14] was 0.00. The “HSS7 Change from baseline, Median” value [14] was −14.50, the “HSS7 Percent change … (SD)” value [14] was −75.00 (50.00) % and the “HSS7 Percent change … Median” value [14] was −100.00%. The “HSS7, Median” value [15] was 8.58, the “HSS7 Change from baseline, Mean (SD)” value [15] was −4.85 (5.63) and the “HSS7 Change from baseline, Median” value [15] was −4.00. For the same compound, the “HSS7 Percent change … (SD)” value [15] was −31.20 (34.88) %, the “HSS7 Percent change … Median” value [15] was −33.18% and the “HSS7, Mean (SD)” value [16] was 9.00 (NC). The “HSS7, Median” value [16] was 9.00, the “HSS7 Change from baseline, Mean (SD)” value [16] was −11.00 (NC) and the “HSS7 Change from baseline, Median” value [16] was −11.00. For the same compound, the “HSS7 Percent change … (SD)” value [16] was −55.00 (NC) %, the “HSS7 Percent change … Median” value [16] was −55.00% and the “HSS7, Mean (SD)” value [17] was 5.23 (4.86). For the same compound, the “HSS7, Median” value [17] was 4.08, the “HSS7 Change from baseline, Mean (SD)” value [17] was −8.77 (5.84) and the “HSS7 Change from baseline, Median” value [17] was −8.00. For the same compound, the “HSS7 Percent change … (SD)” value [17] was −60.93 (34.27) %, the “HSS7 Percent change … Median” value [17] was −64.29% and the “HSS7, Mean (SD)” value [18] was 3.20 (5.22). For the same compound, the “HSS7, Median” value [18] was 0.00, the “HSS7 Change from baseline, Mean (SD)” value [18] was −14.40 (7.60) and the “HSS7 Change from baseline, Median” value [18] was −17.00. For the same compound, the “HSS7 Percent change … (SD)” value [18] was −78.57 (29.45) % and the “HSS7 Percent change … Median” value [18] was −100.00%.
